Measurements from US10080739B2, “Aryl imidazoles and their use as anti-cancer agents” (Aptose Biosciences Inc., priority 2003, dated 2018).

What was measured:
MEK1 = target: T1, MEK1 (Homo sapiens, UniProt Q02750); test: kinase profiler, MEK1; assay type: biochemical; conditions: 10 μM compound, 100 μM ATP, mean of % control
T1 construct: purchased Upstate Biotechnologies (kinase profiler service)
Description: (§1) Compound 45 was tested for its ability to function as a kinase inhibitor using the kinase profiler service from Upstate Biotechnologies. The general protocol employed is as follows: recombinant kinases were incubated with specific substrates, 10 mM MgAcetate, and [γ-^33P-ATP]. The reaction was initiated by the addition of MgATP mix. After incubation at room temperature for 40 minutes, the reaction was stopped by the addition of 5 μl of a 3% phosphoric acid solution. 10 μl of the reaction was then spotted on to a P30 filtermat and washed 3 times for 5 min. in 75 mM phosphoric acid and once in methanol prior to drying and scintillation counting. Each reaction was performed in duplicate with 100 μM ATP −/+10 μM compound 45. Results are presented in Table IV and are expressed as the mean of % control (no compound). PI 3-kinase-γ (PI3K-γ) activity was determined with the PIProfiler™ assay, which measures the binding of the GRP1 pleckstrin homology (PH) domain to PIP3, the product of PI3K acting on its physiological substrate PIP2.

MINK = target: T2, MINK (Homo sapiens, UniProt Q8N4C8); test: kinase profiler, MINK; assay type: biochemical; conditions: 10 μM compound, 100 μM ATP, mean of % control
T2 construct: purchased Upstate Biotechnologies (kinase profiler service)
Description: as §1

CDK6/cyclinD3 = target: T3, CDK6/cyclinD3 (Homo sapiens, UniProt Q00534); test: kinase profiler, CDK6/cyclinD3; assay type: biochemical; conditions: 10 μM compound, 100 μM ATP, mean of % control
T3 construct: purchased Upstate Biotechnologies (kinase profiler service)
Description: as §1

PKCζ = target: T4, PKCζ (Homo sapiens, UniProt Q05513); test: kinase profiler, PKCζ; assay type: biochemical; conditions: 10 μM compound, 100 μM ATP, mean of % control
T4 construct: purchased Upstate Biotechnologies (kinase profiler service)
Description: as §1

Ros = target: T5, Ros (Homo sapiens, UniProt P08922); test: kinase profiler, Ros; assay type: biochemical; conditions: 10 μM compound, 100 μM ATP, mean of % control
T5 construct: purchased Upstate Biotechnologies (kinase profiler service)
Description: as §1

SGK = target: T6, SGK (Homo sapiens, UniProt O00141); test: kinase profiler, SGK; assay type: biochemical; conditions: 10 μM compound, 100 μM ATP, mean of % control
T6 construct: purchased Upstate Biotechnologies (kinase profiler service)
Description: as §1

MSK1 = target: T7, MSK1 (Homo sapiens, UniProt O75582); test: kinase profiler, MSK1; assay type: biochemical; conditions: 10 μM compound, 100 μM ATP, mean of % control
T7 construct: purchased Upstate Biotechnologies (kinase profiler service)
Description: as §1

CDK7/cyclinH/MAT1 = target: T8, CDK7/cyclinH/MAT1 (Homo sapiens, UniProt P50613); test: kinase profiler, CDK7/cyclinH/MAT1; assay type: biochemical; conditions: 10 μM compound, 100 μM ATP, mean of % control
T8 construct: purchased Upstate Biotechnologies (kinase profiler service)
T8 sequence (P50613 whole entry): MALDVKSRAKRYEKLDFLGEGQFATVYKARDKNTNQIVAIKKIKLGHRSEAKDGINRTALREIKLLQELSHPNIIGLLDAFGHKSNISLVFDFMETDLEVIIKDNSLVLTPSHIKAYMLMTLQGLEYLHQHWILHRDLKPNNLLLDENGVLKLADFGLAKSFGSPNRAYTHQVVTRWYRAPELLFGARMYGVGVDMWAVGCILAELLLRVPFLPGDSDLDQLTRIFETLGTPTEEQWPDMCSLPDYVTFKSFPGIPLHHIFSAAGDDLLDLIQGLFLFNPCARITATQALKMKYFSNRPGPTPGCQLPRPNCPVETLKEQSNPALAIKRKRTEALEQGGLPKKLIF
T8 sequence (P51946 whole entry partner): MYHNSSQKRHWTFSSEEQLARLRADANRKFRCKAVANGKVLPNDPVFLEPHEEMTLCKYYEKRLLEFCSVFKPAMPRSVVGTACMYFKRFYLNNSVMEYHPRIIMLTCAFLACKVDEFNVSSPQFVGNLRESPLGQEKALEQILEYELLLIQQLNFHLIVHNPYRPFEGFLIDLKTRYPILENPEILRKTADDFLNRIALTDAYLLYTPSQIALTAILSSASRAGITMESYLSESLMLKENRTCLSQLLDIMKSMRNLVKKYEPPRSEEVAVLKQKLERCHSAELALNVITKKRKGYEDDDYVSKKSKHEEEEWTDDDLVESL
T8 sequence (P51948 whole entry partner): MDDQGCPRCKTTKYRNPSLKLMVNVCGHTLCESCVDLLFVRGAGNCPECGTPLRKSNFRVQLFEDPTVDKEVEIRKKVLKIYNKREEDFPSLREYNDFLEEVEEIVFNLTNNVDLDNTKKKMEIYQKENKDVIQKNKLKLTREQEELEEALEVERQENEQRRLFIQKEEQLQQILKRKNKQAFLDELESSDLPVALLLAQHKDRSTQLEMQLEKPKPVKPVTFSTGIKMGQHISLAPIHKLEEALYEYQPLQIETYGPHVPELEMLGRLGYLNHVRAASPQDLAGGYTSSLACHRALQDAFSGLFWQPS
Description: as §1

Met = target: T9, Met (Homo sapiens, UniProt P08581); test: kinase profiler, Met; assay type: biochemical; conditions: 10 μM compound, 100 μM ATP, mean of % control
T9 construct: purchased Upstate Biotechnologies (kinase profiler service)
Description: as §1

MST2 = target: T10, MST2 (Homo sapiens, UniProt Q13188); test: kinase profiler, MST2; assay type: biochemical; conditions: 10 μM compound, 100 μM ATP, mean of % control
T10 construct: purchased Upstate Biotechnologies (kinase profiler service)
Description: as §1

Yes = target: T11, Yes (Homo sapiens, UniProt P07947); test: kinase profiler, Yes; assay type: biochemical; conditions: 10 μM compound, 100 μM ATP, mean of % control
T11 construct: purchased Upstate Biotechnologies (kinase profiler service)
Description: as §1

Fyn = target: T12, Fyn (Homo sapiens, UniProt P06241); test: kinase profiler, Fyn; assay type: biochemical; conditions: 10 μM compound, 100 μM ATP, mean of % control
T12 construct: purchased Upstate Biotechnologies (kinase profiler service)
T12 sequence (P06241 whole entry): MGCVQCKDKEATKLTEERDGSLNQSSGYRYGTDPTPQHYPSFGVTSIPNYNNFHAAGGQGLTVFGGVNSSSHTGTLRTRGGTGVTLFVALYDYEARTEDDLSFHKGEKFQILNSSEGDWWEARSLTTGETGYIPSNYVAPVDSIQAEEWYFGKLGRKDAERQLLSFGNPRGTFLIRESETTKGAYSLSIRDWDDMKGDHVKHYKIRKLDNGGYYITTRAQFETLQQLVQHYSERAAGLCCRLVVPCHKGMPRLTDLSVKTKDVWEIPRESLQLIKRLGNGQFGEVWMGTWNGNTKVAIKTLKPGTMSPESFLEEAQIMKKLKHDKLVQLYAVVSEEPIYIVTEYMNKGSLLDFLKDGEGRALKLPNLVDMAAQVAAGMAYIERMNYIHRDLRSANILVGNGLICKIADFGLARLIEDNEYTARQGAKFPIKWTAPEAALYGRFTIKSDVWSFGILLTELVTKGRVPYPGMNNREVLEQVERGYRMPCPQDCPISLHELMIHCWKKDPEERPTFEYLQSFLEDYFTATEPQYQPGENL
Description: as §1

Fms = target: T13, Fms (Homo sapiens, UniProt P07333); test: kinase profiler, Fms; assay type: biochemical; conditions: 10 μM compound, 100 μM ATP, mean of % control
T13 construct: purchased Upstate Biotechnologies (kinase profiler service)
T13 sequence (P07333 20-972): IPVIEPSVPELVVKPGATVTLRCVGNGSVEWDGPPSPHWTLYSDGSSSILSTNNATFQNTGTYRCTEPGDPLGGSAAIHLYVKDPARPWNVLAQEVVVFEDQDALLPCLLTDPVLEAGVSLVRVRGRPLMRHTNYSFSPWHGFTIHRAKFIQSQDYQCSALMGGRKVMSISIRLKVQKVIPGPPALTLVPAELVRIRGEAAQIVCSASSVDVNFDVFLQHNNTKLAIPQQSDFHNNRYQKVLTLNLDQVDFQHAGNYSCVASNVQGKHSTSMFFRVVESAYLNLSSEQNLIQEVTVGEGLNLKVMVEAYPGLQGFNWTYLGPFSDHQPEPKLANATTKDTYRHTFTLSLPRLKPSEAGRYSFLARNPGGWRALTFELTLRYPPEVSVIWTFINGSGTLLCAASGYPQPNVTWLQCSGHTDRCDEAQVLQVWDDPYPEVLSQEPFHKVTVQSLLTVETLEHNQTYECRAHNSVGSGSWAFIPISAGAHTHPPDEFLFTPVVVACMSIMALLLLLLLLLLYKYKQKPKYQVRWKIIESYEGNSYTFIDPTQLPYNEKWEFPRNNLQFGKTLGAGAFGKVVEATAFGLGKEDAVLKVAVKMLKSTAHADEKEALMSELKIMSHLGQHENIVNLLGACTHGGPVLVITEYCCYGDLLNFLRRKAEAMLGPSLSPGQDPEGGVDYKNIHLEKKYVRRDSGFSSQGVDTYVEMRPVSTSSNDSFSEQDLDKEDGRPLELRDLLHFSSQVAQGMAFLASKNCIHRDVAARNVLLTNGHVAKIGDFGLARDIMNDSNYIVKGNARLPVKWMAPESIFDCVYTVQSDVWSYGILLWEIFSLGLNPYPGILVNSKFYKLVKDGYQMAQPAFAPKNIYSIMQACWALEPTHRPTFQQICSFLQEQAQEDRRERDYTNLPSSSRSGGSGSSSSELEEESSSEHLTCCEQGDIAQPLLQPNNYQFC
Description: as §1

CDK2/cyclinA = target: T14, CDK2/cyclinA (Homo sapiens, UniProt P24941); test: kinase profiler, CDK2/cyclinA; assay type: biochemical; conditions: 10 μM compound, 100 μM ATP, mean of % control
T14 construct: purchased Upstate Biotechnologies (kinase profiler service)
Description: as §1

CDK2/cyclinE = target: T15, CDK2/cyclinE (Homo sapiens, UniProt P24941); test: kinase profiler, CDK2/cyclinE; assay type: biochemical; conditions: 10 μM compound, 100 μM ATP, mean of % control
T15 construct: purchased Upstate Biotechnologies (kinase profiler service)
Description: as §1

Fes = target: T16, Fes (Homo sapiens, UniProt P07332); test: kinase profiler, Fes; assay type: biochemical; conditions: 10 μM compound, 100 μM ATP, mean of % control
T16 construct: purchased Upstate Biotechnologies (kinase profiler service)
Description: as §1

PAR-1Bα = target: T17, PAR-1Bα (Homo sapiens, UniProt Q7KZI7); test: kinase profiler, PAR-1Bα; assay type: biochemical; conditions: 10 μM compound, 100 μM ATP, mean of % control
T17 construct: purchased Upstate Biotechnologies (kinase profiler service)
Description: as §1

CaMKII = test: kinase profiler, CaMKII; assay type: biochemical, human; conditions: 10 μM compound, 100 μM ATP, mean of % control
Description: as §1

MAPKAP-K2 = target: T18, MAPKAP-K2 (Homo sapiens, UniProt P49137); test: kinase profiler, MAPKAP-K2; assay type: biochemical; conditions: 10 μM compound, 100 μM ATP, mean of % control
T18 construct: purchased Upstate Biotechnologies (kinase profiler service)
Description: as §1

PKCδ = target: T19, PKCδ (Homo sapiens, UniProt Q05655); test: kinase profiler, PKCδ; assay type: biochemical; conditions: 10 μM compound, 100 μM ATP, mean of % control
T19 construct: purchased Upstate Biotechnologies (kinase profiler service)
T19 sequence (Q05655 whole entry): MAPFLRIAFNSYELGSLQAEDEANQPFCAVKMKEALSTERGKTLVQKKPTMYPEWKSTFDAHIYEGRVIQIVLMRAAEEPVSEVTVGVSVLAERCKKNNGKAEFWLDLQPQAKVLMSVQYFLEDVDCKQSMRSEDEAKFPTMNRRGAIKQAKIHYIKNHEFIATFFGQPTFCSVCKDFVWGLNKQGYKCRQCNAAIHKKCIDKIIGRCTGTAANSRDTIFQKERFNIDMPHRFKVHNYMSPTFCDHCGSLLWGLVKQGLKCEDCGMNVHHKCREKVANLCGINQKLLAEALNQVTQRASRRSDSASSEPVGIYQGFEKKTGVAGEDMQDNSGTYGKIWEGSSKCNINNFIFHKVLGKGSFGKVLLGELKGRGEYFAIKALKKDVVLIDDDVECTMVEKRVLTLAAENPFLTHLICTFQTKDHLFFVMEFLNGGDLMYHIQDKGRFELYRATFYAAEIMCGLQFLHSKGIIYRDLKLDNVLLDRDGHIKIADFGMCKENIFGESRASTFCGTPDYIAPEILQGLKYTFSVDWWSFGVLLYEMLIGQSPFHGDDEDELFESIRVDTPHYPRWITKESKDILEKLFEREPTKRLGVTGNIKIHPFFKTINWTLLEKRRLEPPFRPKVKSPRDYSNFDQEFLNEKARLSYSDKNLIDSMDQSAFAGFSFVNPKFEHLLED
Description: as §1

HT-29 colon cancer cells = test: growth suppression of HT-29 colon cancer cells; assay type: cell-based; conditions: Homo sapiens
RAF = target: T20, RAF (Homo sapiens, UniProt P04049); test: kinase profiler, RAF; assay type: biochemical; conditions: 10 μM compound, 100 μM ATP, mean of % control
T20 construct: purchased Upstate Biotechnologies (kinase profiler service)
Description: as §1

PKCα = target: T21, PKCα (Homo sapiens, UniProt P17252); test: kinase profiler, PKCα; assay type: biochemical; conditions: 10 μM compound, 100 μM ATP, mean of % control
T21 construct: purchased Upstate Biotechnologies (kinase profiler service)
Description: as §1

PI3K-δ = target: T22, PI3K-δ (Homo sapiens, UniProt O00329); test: kinase profiler, PI3K-δ; assay type: biochemical; conditions: 10 μM compound, mean of % control
T22 construct: purchased Upstate Biotechnologies (kinase profiler service)
T22 sequence (O00329 whole entry): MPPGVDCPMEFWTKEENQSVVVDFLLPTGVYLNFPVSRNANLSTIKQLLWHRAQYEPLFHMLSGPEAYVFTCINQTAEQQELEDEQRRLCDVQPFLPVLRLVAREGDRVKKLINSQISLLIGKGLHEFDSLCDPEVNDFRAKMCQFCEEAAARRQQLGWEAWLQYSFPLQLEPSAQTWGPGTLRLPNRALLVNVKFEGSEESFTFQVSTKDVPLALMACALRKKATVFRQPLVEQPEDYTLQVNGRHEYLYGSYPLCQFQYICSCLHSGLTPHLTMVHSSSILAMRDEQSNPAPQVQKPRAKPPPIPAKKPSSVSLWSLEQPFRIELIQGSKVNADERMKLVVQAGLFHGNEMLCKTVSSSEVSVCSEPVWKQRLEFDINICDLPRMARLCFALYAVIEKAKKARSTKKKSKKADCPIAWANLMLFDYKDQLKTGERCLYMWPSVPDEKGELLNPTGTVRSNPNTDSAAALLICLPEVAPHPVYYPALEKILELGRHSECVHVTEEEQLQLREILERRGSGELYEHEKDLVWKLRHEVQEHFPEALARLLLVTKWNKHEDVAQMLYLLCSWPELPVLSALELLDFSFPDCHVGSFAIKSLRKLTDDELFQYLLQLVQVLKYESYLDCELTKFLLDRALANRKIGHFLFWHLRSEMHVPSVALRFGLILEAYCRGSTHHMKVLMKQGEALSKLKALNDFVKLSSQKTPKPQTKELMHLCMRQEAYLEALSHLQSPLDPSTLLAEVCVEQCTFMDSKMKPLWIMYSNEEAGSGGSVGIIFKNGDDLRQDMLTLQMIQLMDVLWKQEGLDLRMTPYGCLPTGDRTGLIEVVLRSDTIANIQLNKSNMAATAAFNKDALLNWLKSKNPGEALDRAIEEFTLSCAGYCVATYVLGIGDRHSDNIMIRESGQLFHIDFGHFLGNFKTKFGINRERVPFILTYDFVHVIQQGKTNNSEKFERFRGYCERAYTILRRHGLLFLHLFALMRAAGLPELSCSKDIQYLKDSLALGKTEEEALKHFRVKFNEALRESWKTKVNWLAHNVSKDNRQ
T22 sequence (P27986 whole entry partner): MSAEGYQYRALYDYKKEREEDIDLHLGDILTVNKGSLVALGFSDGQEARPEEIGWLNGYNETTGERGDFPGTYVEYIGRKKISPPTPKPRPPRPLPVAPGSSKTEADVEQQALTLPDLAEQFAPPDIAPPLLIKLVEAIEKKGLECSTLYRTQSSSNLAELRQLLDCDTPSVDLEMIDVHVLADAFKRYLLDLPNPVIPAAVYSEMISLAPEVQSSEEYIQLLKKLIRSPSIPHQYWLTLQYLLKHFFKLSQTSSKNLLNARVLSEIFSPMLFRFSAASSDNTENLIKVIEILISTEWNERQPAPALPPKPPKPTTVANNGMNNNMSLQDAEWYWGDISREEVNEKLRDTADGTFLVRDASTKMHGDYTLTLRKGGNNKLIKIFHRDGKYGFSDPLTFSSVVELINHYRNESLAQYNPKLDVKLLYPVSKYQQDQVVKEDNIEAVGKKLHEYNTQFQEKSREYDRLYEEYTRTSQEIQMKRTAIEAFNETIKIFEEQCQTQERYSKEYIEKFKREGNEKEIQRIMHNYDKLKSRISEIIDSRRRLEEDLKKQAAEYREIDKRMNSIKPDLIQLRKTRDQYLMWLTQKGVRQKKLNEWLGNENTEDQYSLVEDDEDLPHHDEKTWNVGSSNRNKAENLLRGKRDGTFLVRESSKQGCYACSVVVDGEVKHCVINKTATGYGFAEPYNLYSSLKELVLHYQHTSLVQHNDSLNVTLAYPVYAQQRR
Description: as §1

EphB4 = target: T23, EphB4 (Homo sapiens, UniProt P54760); test: kinase profiler, EphB4; assay type: biochemical; conditions: 10 μM compound, 100 μM ATP, mean of % control
T23 construct: purchased Upstate Biotechnologies (kinase profiler service)
Description: as §1

ErbB4 = target: T24, ErbB4 (Homo sapiens, UniProt Q15303); test: kinase profiler, ErbB4; assay type: biochemical; conditions: 10 μM compound, 100 μM ATP, mean of % control
T24 construct: purchased Upstate Biotechnologies (kinase profiler service)
Description: as §1

PI3K-α = target: T25, PI3K-α (Homo sapiens, UniProt P42336); test: kinase profiler, PI3K-α; assay type: biochemical; conditions: 10 μM compound, mean of % control
T25 construct: purchased Upstate Biotechnologies (kinase profiler service)

[1] = test system: human non-small cell lung cancer cells (H460); test: XTT cell proliferation assay, H460 cells, 48 h; assay type: cell-based; conditions: NCI-H460, 48 h, read-out: % Survival
Description: Selected compounds of Formula I were tested for anti-cancer activity in vitro using a human colon carcinoma cells (HT-29) and human non-small cell lung cancer cells (H460). The cells were maintained in α-MEM medium (Wisent, St-Bruno, Qc) supplemented with 10% FBS, and grown at 37° C. in an atmosphere of 5% CO2. Cells were transferred onto 150 mm tissue culture plates and grown until sub-confluency (70-80%) prior to their use.
The anti-cancer activity in vitro was evaluated by a cell proliferation assay based on the ability of live cells to reduce the tetrazolium salt XTT to orange coloured compounds of formazan (XTT cell proliferation kit II, Roche Applied Science, Montreal, QC).
Approximately 4×10^3 colon cancer cells (HT-29) or 2×10^3 non-small cell lung cancer cells (NCI-H460) in 100 μl of complete culture medium were plated onto 96-well microtiter plates and incubated overnight at 37° C. The medium was then removed by inverting the plate and patting on a sterile absorbent cloth. Fifty μl of medium containing the test compound at either 25 or 100 μM, were added to the wells containing cells and incubated at 37° C. in an atmosphere of 5% CO2 for 48 h. Following incubation, 25 μl of an XTT reaction mixture (XTT at a final concentration of 0.3 mg/ml) were added to each well and the plates were incubated for a further 4 h. The absorbance of each sample was then determined at a wavelength of 490 nm/650 nm as reference. Each compound was tested in duplicate and the results are reported as averages.

## Brc1ccc2[nH]cc(-c3nc4c5ccccc5c5ccccc5c4[nH]3)c2c1 [Compound 45]
MEK1
  activity at 10 µM: 88%
MINK
  activity at 10 µM: 91%
CDK6/cyclinD3
  activity at 10 µM: 87%
PKCζ
  activity at 10 µM: 96%
Ros
  activity at 10 µM: 107%
SGK
  activity at 10 µM: 89%
MSK1
  activity at 10 µM: 76%
CDK7/cyclinH/MAT1
  activity at 10 µM: 95%
Met
  activity at 10 µM: 129%
MST2
  activity at 10 µM: 77%
Yes
  activity at 10 µM: 91%
Fyn
  activity at 10 µM: 103%
Fms
  activity at 10 µM: 135%
CDK2/cyclinA
  activity at 10 µM: 95%
CDK2/cyclinE
  activity at 10 µM: 117%
Fes
  activity at 10 µM: 99%
PAR-1Bα
  activity at 10 µM: 88%
CaMKII
  % activity: 32%
MAPKAP-K2
  activity at 10 µM: 119%
PKCδ
  activity at 10 µM: 87%
HT-29 colon cancer cells
  GI50: 2.6 µM
RAF
  activity at 10 µM: 100%
PKCα
  activity at 10 µM: 92%
PI3K-δ
  activity at 10 µM: 9%
EphB4
  activity at 10 µM: 95%
ErbB4
  activity at 10 µM: 73%
PI3K-α
  activity at 10 µM: 30%
[1]
  viability at 25 µM: 96%
  viability at 100 µM: 32.7%
